Patent US9803021B2 (The Regents of the University of California, priority 2012, dated 2017)
“Also recorded” adds a separate entry of the source.

How the values were obtained:
[1] = tested on: primary myeloma cells from patients; assay: Treatment of primary myeloma cells from patients (trypan blue / MTT); assay type: cell-based, human; details: 25 nM, 72 h
Experimental: Trypan blue and MTT assays were used to determine the number of viable cells. The percentage of viable recovered cells was calculated based upon the number of viable cells recovered from DMSO-treated control cells, which was arbitrarily designated as 100%.
Percent viable cell recovery was determined by trypan blue staining, with untreated control cells designated as 100%.

OCI-My 5 tumors = assay: OCI-My5 xenograft model in SCID mice; assay type: in vivo, mouse; details: OCI-My5 s.c., 100 μg i.v. on days 14, 16, 18
From the text: Eight mice were included in each group.
Each group consisted of eight mice.

ANBL-6 [2] = assay: Senescence induced β-gal activity at pH 6 (C12FDG, flow cytometry); assay type: cell-based, human; details: ANBL-6, 1 nM, 3 days (data not shown)
Experimental: (§1) Senescence induced β-galactosidase (β-gal) activity was detected as described previously (Debacq-Chainiaux et al. (2009) Nature Protocols, 4: 1798-1806). […] To induce lysosomal alkalinization, cells were incubated in 100 nM bafilomycin A1 (Sigma) for 1 h. Then cells were incubated for 30 min with the β-gal substrate dodecanoylaminofluorescein di-β-D-galactopyranoside (C12FDG; Invitrogen), which becomes fluorescent after cleavage by β-gal. After washing twice with cold PBS, cells were resuspended in cold PBS containing 1 mM phenylethyl thiogalactoside (PETG), a β-gal inhibitor, and analyzed by flow cytometry for C12-fluorescein.
(§2) Intracellular β-galactosidase (β-gal) activity was measured as an indicator for replicative senescence. […] After treatment, cells were incubated with 100 nM bafilomycin A1 (Sigma) for 1 hour to induce lysosomal alkalinization. Then cells were incubated for 30 minutes with the 33 μM of β-gal substrate dodecanoylaminofluorescein di-β-D-galactopyranoside (C12FDG; Invitrogen), which becomes fluorescent after cleavage to C12-fluorescein. After washing twice with cold PBS, cells were resuspended in cold PBS containing 1 mM phenylethyl thiogalactoside (PETG), a β-gal inhibitor, and analyzed by flow cytometry for C12-fluorescein.

OCI-My5 [3] = assay: as above; assay type: cell-based, human; details: OCI-My5, 1 nM, 3 days (also 4, 6, 7 days)
Experimental: as §1, §2

U266 [4] = assay: as above; assay type: cell-based, human; details: U266, 1 nM, 3 days
Experimental: as §1, §2

OCI-My 5 cells = assay: Cell proliferation assay (3[H]-thymidine incorporation); assay type: cell-based, human; details: OCI-My 5, 0.3 pM-25 nM, 3 days
Experimental: The proliferative status of the cells was determined by measuring ^3[H]-thymidine incorporation.

MM1-144 = assay: MTS assay (cell viability / metabolic activity); assay type: cell-based, human; details: MM144 (MM1-144), 3 days
Experimental: (§3) Percent cell viability was determined using MTS solution (Promega, Madison, Wis.) by measuring absorbance at 490 nm using a Synergy HT Multi-Detection Microplate Reader (BioTek Instruments, Inc., Winooski, Vt.) with untreated cells being 100%. GraphPad Prism (GraphPad Software Inc., La Jolla, Calif.) was used to analyze data by non-linear regression with the log (inhibitor) vs. the response with a variable slope with the IC50 calculated. Data are expressed as a percentage of maximum metabolic activity. The experiments were performed in triplicate.
as §3, with “Metabolic activity” for “Percent cell viability”, “(Promega)” for “(Promega, Madison, Wis.)”, “Instruments Inc.)” for “Instruments, Inc., Winooski, Vt.)”, “Inc.)” for “Inc., La Jolla, Calif.)”, “versus” for “vs.”, “slope.” for “slope with the IC50 calculated.”

ANBL-6 [5] = assay: MTS assay (cell viability / metabolic activity); assay type: cell-based, human; details: ANBL-6, 3 days or 7 days
Experimental: as §3
as §3, with “Metabolic activity” for “Percent cell viability”, “(Promega)” for “(Promega, Madison, Wis.)”, “Instruments Inc.)” for “Instruments, Inc., Winooski, Vt.)”, “Inc.)” for “Inc., La Jolla, Calif.)”, “versus” for “vs.”, “slope.” for “slope with the IC50 calculated.”

OCI-My5 [6] = assay: MTS assay (cell viability / metabolic activity); assay type: cell-based, human; details: OCI-My5, 3 days
Experimental: as §3
as §3, with “Metabolic activity” for “Percent cell viability”, “(Promega)” for “(Promega, Madison, Wis.)”, “Instruments Inc.)” for “Instruments, Inc., Winooski, Vt.)”, “Inc.)” for “Inc., La Jolla, Calif.)”, “versus” for “vs.”, “slope.” for “slope with the IC50 calculated.”

U266 [7] = assay: MTS assay (cell viability / metabolic activity); assay type: cell-based, human; details: U266, 3 days
Experimental: as §3
as §3, with “Metabolic activity” for “Percent cell viability”, “(Promega)” for “(Promega, Madison, Wis.)”, “Instruments Inc.)” for “Instruments, Inc., Winooski, Vt.)”, “Inc.)” for “Inc., La Jolla, Calif.)”, “versus” for “vs.”, “slope.” for “slope with the IC50 calculated.”

NCI-H929 = assay: MTS assay (cell viability / metabolic activity); assay type: cell-based, human; details: 3 days
Experimental: as §3
as §3, with “Metabolic activity” for “Percent cell viability”, “(Promega)” for “(Promega, Madison, Wis.)”, “Instruments Inc.)” for “Instruments, Inc., Winooski, Vt.)”, “Inc.)” for “Inc., La Jolla, Calif.)”, “versus” for “vs.”, “slope.” for “slope with the IC50 calculated.”

Daudi cells = assay: Binding of anti-CD138 IgG to Daudi cells; parameters: species or system human; details: data not shown
U266 tumors = assay: U266 xenograft model in NSG mice; details: U266 s.c., 100 μg on days 14, 16, 18

With “anti-CD138: Unfused human anti-CD138 IgG1 with VH and VL of antibody B-B4 [reference compound]” as the substance, how does the “viability of primary myeloma cells, result in words” value [1] read?
The value was “little effect”.

What about the “survival / protection, result in words” value (OCI-My 5 tumors) of the same substance?
Its value is “increased survival slightly; also recorded: did not differ significantly from PBS treated mice”.

And the “β-gal activity at pH 6 (senescence), result in words” value (“β-gal activity at pH 6 (senescence)” for short) (ANBL-6 [2])?
The value was “no increases”.

What about the “β-gal activity at pH 6 (senescence)” value (OCI-My5 [3]) of the same substance?
Its value is “little or no increase in β-gal activity”.

And the “β-gal activity at pH 6 (senescence)” value (U266 [4])?
Its value is “no increase under any conditions”.

And the “proliferation (3[H]-thymidine incorporation), result in words” value (OCI-My 5 cells)?
Its value is “did not decrease the ability of the cells to proliferate”.

And the “cell viability / growth inhibition (MTS assay), result in words” value (from here on “cell viability / growth inhibition”) (MM1-144)?
The value was “no effect”.

What about the “cell viability / growth inhibition” value (ANBL-6 [5]) of the same substance?
Its value is “no effect”.

What about the “cell viability / growth inhibition” value (OCI-My5 [6]) of the same substance?
The value was “no effect”.

And the “cell viability / growth inhibition” value (U266 [7])?
Its value is “no effect”.

And the “cell viability / growth inhibition” value (NCI-H929)?
Its value is “no effect”.

What about the “binding to Daudi cells” value (Daudi cells) of the same substance?
Its value is “did not bind to Daudi cells”.

What about the “survival / protection against tumor growth, result in words” value (U266 tumors) of the same substance?
Its value is “significant protection”.
